Measurements: patent publication US20240270809A1, “ORAL GLP RECEPTOR AGONISTS” (priority 2020, published 2024)
Positions of bridges follow the written chain, without caps; N, C: chain ends. Non-standard residues stand in square brackets, D forms with d. Residues, ends and D or L forms follow the SMILES beside them. d(αMeF) = C[C@@](N)(Cc1ccccc1)C(=O)O; αMeL = CC(C)C[C@](C)(N)C(=O)O; Nle = CCCC[C@H](N)C(=O)O; Aib = CC(C)(N)C(=O)O

Columns and labels:
human GLP2 receptor = molecular target: T1, human GLP2 receptor (Homo sapiens, UniProt O95838); assay: cAMP accumulation assay, functional agonism of human GLP2 receptor; type: cell-based; details: HEK cells infected with human GLP2 receptor BacMam virus, HTRF cAMP; for Emax: HEK293, read-out: Human GLP-2R agonist cAMP Emax; for EC50: read-out: Human GLP-2R agonist cAMP pEC50 (converted)
T1 construct: expressed in transfected cells; host or cells: HEK cells, BacMam virus transduction
T1 sequence (O95838 1-553): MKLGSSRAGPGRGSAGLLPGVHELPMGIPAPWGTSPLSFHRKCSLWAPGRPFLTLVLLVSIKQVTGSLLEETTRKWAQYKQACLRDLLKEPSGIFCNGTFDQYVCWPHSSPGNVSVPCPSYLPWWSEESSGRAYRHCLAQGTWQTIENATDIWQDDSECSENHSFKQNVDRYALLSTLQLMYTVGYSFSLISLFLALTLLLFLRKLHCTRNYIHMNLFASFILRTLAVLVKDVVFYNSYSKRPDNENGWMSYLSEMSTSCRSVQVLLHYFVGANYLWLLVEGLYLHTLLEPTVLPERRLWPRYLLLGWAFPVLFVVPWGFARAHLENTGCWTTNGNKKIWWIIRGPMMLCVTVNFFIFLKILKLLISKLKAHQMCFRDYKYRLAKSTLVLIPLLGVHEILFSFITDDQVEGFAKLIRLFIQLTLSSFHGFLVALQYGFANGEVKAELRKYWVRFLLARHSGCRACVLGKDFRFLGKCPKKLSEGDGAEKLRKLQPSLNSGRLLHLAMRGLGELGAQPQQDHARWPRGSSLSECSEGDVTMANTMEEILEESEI
Method in brief: (§1)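 Steps: infect HEK cells with human GLP1 or GLP2 receptor BacMam for 24 hours; freeze; resuspend in HBSS with 0.5 mM IBMX; incubate with agonist 45 min at 37° C; lyse with HTRF detection reagents and read cAMP.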

human GLP1 receptor = molecular target: T2, human GLP1 receptor (Homo sapiens, UniProt P43220); assay: cAMP accumulation assay, functional agonism of human GLP1 receptor; type: cell-based; details: HEK cells infected with human GLP1 receptor BacMam virus, HTRF cAMP; for Emax: HEK293, read-out: Human GLP-1R agonist cAMP Emax; for EC50: read-out: Human GLP-1R agonist cAMP pEC50 (converted)
T2 construct: expressed in transfected cells; host or cells: HEK cells, BacMam virus transduction
T2 sequence (P43220 24-463): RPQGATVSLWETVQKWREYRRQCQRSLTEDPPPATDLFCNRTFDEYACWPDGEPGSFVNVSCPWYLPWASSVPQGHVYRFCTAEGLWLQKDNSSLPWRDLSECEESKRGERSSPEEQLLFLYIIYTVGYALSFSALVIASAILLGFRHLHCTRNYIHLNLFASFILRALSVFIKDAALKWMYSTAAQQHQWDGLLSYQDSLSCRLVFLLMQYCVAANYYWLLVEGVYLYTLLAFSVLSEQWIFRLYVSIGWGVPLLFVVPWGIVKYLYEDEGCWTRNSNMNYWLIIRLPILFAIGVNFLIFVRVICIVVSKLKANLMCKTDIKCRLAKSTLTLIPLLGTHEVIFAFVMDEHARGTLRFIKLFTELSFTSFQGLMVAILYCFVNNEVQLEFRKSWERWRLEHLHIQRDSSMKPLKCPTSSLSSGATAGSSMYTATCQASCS
Method in brief: as §1

[1] = Stability of peptides in rat intestinal fluid (ratIF); details: Sprague Dawley, undiluted rat small intestinal fluid (ratIF)
Procedure: Peptides were tested for in vitro stability in native intestinal fluid obtained from the rat small intestine. Rat Sprague Dawley Small Intestinal Fluid (ratIF) (from Biotrend art. no. RSD-SIF-MI-30ML, undiluted) was preincubated for 15 min at 37° C. and spiked with test and reference item working solutions. Experiments were conducted in duplicate in a non-serial manner. The total incubation volume per replicate was 150 μl. […] All samples and calibration standards (prepared in ratIF) were precipitated by addition of 300 μl precipitant (ACN / 2% acetic acid / 0.2% HFBA, (precipitation regent, PR)) containing internal standards (ISTD) to 150 μl sample. After incubation for 1 h at room temperature all samples were centrifuged for 10 min at 2,200×g (room temperature).

mouse GLP2 receptor = molecular target: T3, mouse GLP2 receptor (Mus musculus, UniProt Q5IXF8); assay: cAMP accumulation assay, functional agonism of mouse GLP2 receptor; type: cell-based; details: HEK cells transiently transfected with mouse GLP2 receptor, HTRF cAMP; for Emax: HEK293, read-out: Mouse GLP-2R agonist cAMP Emax; for EC50: read-out: Mouse GLP-2R agonist cAMP pEC50 (converted)
T3 construct: expressed in transfected cells; host or cells: HEK cells, transient transfection with GeneJuice
T3 sequence (Q5IXF8 1-512): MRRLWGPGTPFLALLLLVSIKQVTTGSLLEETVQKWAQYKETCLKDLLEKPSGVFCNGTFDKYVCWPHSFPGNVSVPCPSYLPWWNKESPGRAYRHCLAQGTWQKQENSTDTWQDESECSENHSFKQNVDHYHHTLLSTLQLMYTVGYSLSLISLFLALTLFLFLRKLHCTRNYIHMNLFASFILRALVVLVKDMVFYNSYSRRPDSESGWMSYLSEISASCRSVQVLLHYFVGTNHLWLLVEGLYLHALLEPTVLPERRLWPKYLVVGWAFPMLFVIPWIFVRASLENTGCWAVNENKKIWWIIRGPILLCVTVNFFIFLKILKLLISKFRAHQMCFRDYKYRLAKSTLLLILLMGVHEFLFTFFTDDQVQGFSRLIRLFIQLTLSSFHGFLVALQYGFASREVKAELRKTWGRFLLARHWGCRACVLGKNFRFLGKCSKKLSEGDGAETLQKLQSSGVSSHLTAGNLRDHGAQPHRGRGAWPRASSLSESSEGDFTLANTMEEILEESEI
Method in brief: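 Transiently transfected HEK cells (24 h, frozen, 8000/well) in HBSS with 0.5 mM IBMX exposed to compound concentration series for 45 min at 37 °C. cAMP measured by HTRF after lysis and 1 h at RT; pEC50 from four-parameter concentration-response fit.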

mouse GLP1 receptor = molecular target: T4, mouse GLP1 receptor (Mus musculus, UniProt O35659); assay: cAMP accumulation assay, functional agonism of mouse GLP1 receptor; type: cell-based; details: HEK cells transiently transfected with mouse GLP1 receptor, HTRF cAMP
T4 construct: expressed in transfected cells; host or cells: HEK cells, transient transfection with GeneJuice
T4 sequence (O35659 22-463): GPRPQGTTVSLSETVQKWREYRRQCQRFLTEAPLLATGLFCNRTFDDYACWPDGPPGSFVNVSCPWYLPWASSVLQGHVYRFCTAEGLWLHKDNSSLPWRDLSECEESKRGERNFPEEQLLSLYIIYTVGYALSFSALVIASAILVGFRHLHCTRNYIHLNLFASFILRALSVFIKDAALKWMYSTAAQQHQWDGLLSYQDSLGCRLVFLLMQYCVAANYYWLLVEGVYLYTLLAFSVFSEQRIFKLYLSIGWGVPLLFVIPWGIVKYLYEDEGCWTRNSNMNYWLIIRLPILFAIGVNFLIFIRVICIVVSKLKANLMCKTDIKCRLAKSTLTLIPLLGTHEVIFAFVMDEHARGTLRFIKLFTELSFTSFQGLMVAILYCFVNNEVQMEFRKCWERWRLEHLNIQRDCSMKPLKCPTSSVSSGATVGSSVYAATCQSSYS
Procedure: CAMP production upon agonist stimulation of mouse GLP2 or GLP1 receptors was assessed utilizing HiRange cAMP kit (Cisbio). In brief, HEK cells were transiently transfected for 24 hours with cDNA using GeneJuice Transfection reagent (EMD Millipore) and frozen at −80° C. for later use in the assay. […] Cells were prepared in the assay buffer (HBSS (Lonza) supplemented with 0.5 mM IBMX (Tocris)). After 45 min incubation at 37° C., the reaction was stopped by addition of the HTRF detection reagents in the lysis buffer provided in the kit. Following 1-hour incubation at RT, plates were read on Pherastar FS (BMG Labtech, Inc.) using standard HTRF settings. Dotmatics Studies software was used for calculation of pEC50 values by fitting data to a four-parameter concentration response curve.

[2] = Stability of peptides in Fasted-State Simulated Intestinal Fluid (FaSSIF); type: in vitro ADME; details: FaSSIF with 10 mg/ml pancreatin; FaSSIF pH 6.5 with 10 mg/ml pancreatin, 37° C., t = 15 mins

| Compound | Emax (human GLP2 receptor) [%] | EC50 (human GLP2 receptor) [nM] | Emax (human GLP1 receptor) [%] | EC50 (human GLP1 receptor) [nM] | remaining at 0.5 h [1] [%] | Emax (mouse GLP2 receptor) [%] | EC50 (mouse GLP2 receptor) [nM] | Emax (mouse GLP1 receptor; HEK293, read-out: Mouse GLP-1R agonist cAMP Emax) [%] | EC50 (mouse GLP1 receptor; read-out: Mouse GLP-1R agonist cAMP pEC50 (converted)) [nM] | remaining at 0.25 h [2] [%] |
| --- | --- | --- | --- | --- | --- | --- | --- | --- | --- | --- |
| CCCC[C@H](NC(=O)[C@H](CCC(=O)O)NC(=O)[C@@H]1CC(=O)NCCCC[C@H](NC(=O)[C@H](CC(=O)O)NC(=O)C(C)(C)NC(=O)[C@@H](N)Cc2c[nH]cn2)C(=O)N[C@@H](CO)C(=O)N[C@@H](Cc2ccccc2)C(=O)N[C@@H](CO)C(=O)N1)C(=O)N[C@](C)(Cc1ccccc1)C(=O)N[C@H](C(=O)N[C@@](C)(CC(C)C)C(=O)N[C@@H](CC(C)C)C(=O)N[C@@H](CC(=O)O)C(=O)N[C@H]1CCC(=O)NCCCC[C@@H](C(=O)N[C@@H](CC(=O)O)C(=O)N[C@@H](Cc2ccccc2)C(=O)N[C@H](C(=O)N[C@H]2CCC(=O)NCCCC[C@@H](C(=O)N[C@H](C(=O)N[C@@H](CCCCN)C(N)=O)[C@@H](C)O)NC(=O)[C@H]([C@@H](C)CC)NC(=O)[C@H](CC(C)C)NC(=O)[C@H](Cc3c[nH]c4ccccc34)NC2=O)[C@@H](C)CC)NC(=O)[C@H](C)NC(=O)[C@H](C)NC(=O)[C@H](CCCCN)NC1=O)[C@@H](C)O [Example 36] (H-H[Aib]DKSFSDE[Nle][d(αMeF)]T[αMeL]LDEKAAKDFIEWLIKTK-NH2; lactam 4-8, 16-20, 24-28; N-terminus and C-terminus assumed) | 104 | 0.0316 | 97.1 | 0.0316 | 23.3 | – | – | – | – | – |
| CCCC[C@H](NC(=O)[C@H](CCC(=O)O)NC(=O)[C@@H]1CC(=O)NCCCC[C@H](NC(=O)[C@H](CC(=O)O)NC(=O)C(C)(C)NC(=O)[C@@H](N)Cc2c[nH]cn2)C(=O)N[C@@H](CO)C(=O)N[C@@H](Cc2ccccc2)C(=O)N[C@@H](CO)C(=O)N1)C(=O)N[C@H](Cc1ccccc1)C(=O)N[C@H](C(=O)N[C@@](C)(CC(C)C)C(=O)N[C@@H](CC(C)C)C(=O)N[C@@H](CC(=O)O)C(=O)N[C@H]1CCC(=O)NCCCC[C@@H](C(=O)N[C@@H](CC(=O)O)C(=O)N[C@@H](Cc2ccccc2)C(=O)N[C@H](C(=O)N[C@H]2CCC(=O)NCCCC[C@@H](C(=O)N[C@H](C(=O)N3CCC[C@H]3C(N)=O)[C@@H](C)O)NC(=O)[C@H]([C@@H](C)CC)NC(=O)[C@H](CC(C)C)NC(=O)[C@H](Cc3c[nH]c4ccccc34)NC2=O)[C@@H](C)CC)NC(=O)[C@H](C)NC(=O)[C@H](C)NC(=O)[C@H](CCCCN)NC1=O)[C@@H](C)O [Example 29] (H-H[Aib]DKSFSDE[Nle][dF]T[αMeL]LDEKAAKDFIEWLIKTP-NH2; lactam 4-8, 16-20, 24-28 (inferred); C-terminus assumed) | 103 | 0.0316 | 96.2 | 0.0501 | 41.3 | 100 | 5.01 | – | – | – |
| CCCC[C@H](NC(=O)[C@H](CCC(=O)O)NC(=O)[C@H](CC(=O)O)NC(=O)[C@H](CO)NC(=O)[C@H](Cc1ccccc1)NC(=O)[C@H](CO)NC(=O)CNC(=O)[C@H](CC(=O)O)NC(=O)C(C)(C)NC(=O)[C@@H](N)Cc1c[nH]cn1)C(=O)N[C@H](Cc1ccccc1)C(=O)N[C@H]1CCCCNC(=O)C[C@@H](C(=O)N[C@@H](CCCCN)C(=O)N[C@@H](C)C(=O)N[C@@H](C)C(=O)N[C@@H](CCCCN)C(=O)N[C@@H](CC(=O)O)C(=O)N[C@@H](Cc2ccccc2)C(=O)N[C@H](C(=O)N[C@@H](CC(N)=O)C(=O)N[C@@H](Cc2c[nH]c3ccccc23)C(=O)N[C@@H](CC(C)C)C(=O)N[C@H](C(=O)N[C@@H](CCC(N)=O)C(=O)N[C@H](C(=O)N[C@@H](CCCCN)C(=O)N[C@H](C(=O)N[C@H](C(=O)N[C@@H](CC(=O)O)C(N)=O)[C@@H](C)O)[C@@H](C)CC)[C@@H](C)O)[C@@H](C)CC)[C@@H](C)CC)NC(=O)[C@H](CC(=O)O)NC(=O)[C@H](CC(C)C)NC(=O)[C@H]([C@@H](C)CC)NC1=O [Example 88] (H-H[Aib]DGSFSDE[Nle][dF]KILDDKAAKDFINWLIQTKITD-NH2; lactam 12-16) | 102 | 0.00316 | 99.2 | 1.26 | – | 98.7 | 0.00631 | 96.4 | 0.1 | 0.5 |
| CCCC[C@H](NC(=O)[C@H](CCC(=O)O)NC(=O)[C@@H]1CC(=O)NCCCC[C@H](NC(=O)[C@H](CCC(N)=O)NC(=O)C(C)(C)NC(=O)[C@@H](N)Cc2c[nH]cn2)C(=O)N[C@@H](CO)C(=O)N[C@@H](Cc2ccccc2)C(=O)N[C@@H](CO)C(=O)N1)C(=O)N[C@H](Cc1ccccc1)C(=O)N[C@H](C(=O)N[C@@](C)(CC(C)C)C(=O)N[C@@H](CC(C)C)C(=O)N[C@@H](CC(=O)O)C(=O)N[C@H]1CCC(=O)NCCCC[C@@H](C(=O)N[C@@H](CC(=O)O)C(=O)N[C@@H](Cc2ccccc2)C(=O)N[C@H](C(=O)N[C@H]2CCC(=O)NCCCC[C@@H](C(=O)N[C@H](C(=O)N[C@@H](CCCCN)C(N)=O)[C@@H](C)O)NC(=O)[C@H]([C@@H](C)CC)NC(=O)[C@H](CC(C)C)NC(=O)[C@H](Cc3c[nH]c4ccccc34)NC2=O)[C@@H](C)CC)NC(=O)[C@H](C)NC(=O)[C@H](C)NC(=O)[C@H](CCCCN)NC1=O)[C@@H](C)O [Example 27] (H-H[Aib]QKSFSDE[Nle][dF]T[αMeL]LDEKAAKDFIEWLIKTK-NH2; lactam 4-8, 16-20, 24-28; N-terminus and C-terminus assumed) | 99.3 | 0.0631 | 97.1 | 0.251 | 11 | – | – | – | – | – |
